Experimental data taken from ChEMBL document CHEMBL5532639, “Heterocyclic pyrimidine derivatives as promising antibacterial agents” (Eur J Med Chem, 2023).
Converted amounts (≈) assume the structure as drawn. Blank lines part the entries; values can stand above or below the compound they belong to.

How the values were obtained:
Escherichia coli [1] = experiment: Antibacterial activity against Escherichia coli ATCC 25922 assessed as bacterial growth inhibition; type: functional
Staphylococcus aureus [2] = experiment: Antibacterial activity against Staphylococcus aureus ATCC 3750 assessed as reduction in bacterial growth; type: functional
Bacillus subtilis [3] = experiment: Antibacterial activity against Bacillus subtilis 6633 assessed as reduction in bacterial growth; type: functional
Salmonella typhimurium = experiment: Antibacterial activity against Salmonella typhimurium DT104 assessed as reduction in bacterial growth; type: functional, Salmonella enterica subsp. enterica serovar Typhimurium; details: Salmonella enterica
Bacillus subtilis [4] = experiment: Antibacterial activity against Bacillus subtilis assessed as reduction in microbial growth by measuring zone of inhibition; type: functional
Staphylococcus aureus [5] = experiment: Antibacterial activity against Staphylococcus aureus assessed as reduction in microbial growth by measuring zone of inhibition; type: functional
Pseudomonas aeruginosa = experiment: Antibacterial activity against Pseudomonas aeruginosa assessed as reduction in microbial growth by measuring zone of inhibition; type: functional
Escherichia coli [6] = experiment: Antibacterial activity against Escherichia coli assessed as reduction in microbial growth by measuring zone of inhibition; type: functional
Bacillus subtilis [7] = experiment: Antimicrobial activity against Bacillus subtilis RCMB 010069 assessed as bacterial growth inhibition by measuring zone of inhibition at 50 ug/ml by agar cup diffusion assay; type: functional; details: read-out: IZ
Escherichia coli [8] = experiment: Antimicrobial activity against Escherichia coli RCMB 010052 assessed as bacterial growth inhibition by measuring zone of inhibition at 50 ug/ml by agar cup diffusion assay; type: functional; details: read-out: IZ
Streptococcus pneumoniae = experiment: Antimicrobial activity against Streptococcus […] assessed as bacterial growth inhibition by measuring zone of inhibition at 50 ug/ml by agar cup diffusion assay; type: functional; details: read-out: IZ
Escherichia coli [9] = experiment: Antibacterial activity against Escherichia coli assessed as bacterial growth inhibition by measuring zone of inhibition at 50 ug/ml by agar cup diffusion assay; type: functional; details: read-out: IZ
Staphylococcus aureus [10] = experiment: Antibacterial activity against Staphylococcus aureus assessed as bacterial growth inhibition by measuring zone of inhibition at 50 ug/ml by agar cup diffusion assay; type: functional; details: read-out: IZ

MIC (Escherichia coli [1]): 6 µg/mL (≈ 14.8 µM) | MIC (Staphylococcus aureus [2]): 4 µg/mL (≈ 9.89 µM) | MIC (Bacillus subtilis [3]): 4 µg/mL (≈ 9.89 µM) | MIC (Salmonella typhimurium): 5 µg/mL (≈ 12.4 µM)
SMILES: Cc1nc2scc(-c3ccco3)c2c(=O)n1/N=C/c1ccc(Cl)cc1Cl

MIC (Escherichia coli [1]): 7 µg/mL (≈ 17.7 µM) | MIC (Staphylococcus aureus [2]): 6 µg/mL (≈ 15.1 µM) | MIC (Bacillus subtilis [3]): 5 µg/mL (≈ 12.6 µM) | MIC (Salmonella typhimurium): 5 µg/mL (≈ 12.6 µM)
SMILES: Cc1nc2scc(-c3ccco3)c2c(=O)n1NC(=O)c1ccc([N+](=O)[O-])cc1

MIC (Escherichia coli [1]): 4 µg/mL (≈ 10.3 µM) | MIC (Staphylococcus aureus [2]): 4 µg/mL (≈ 10.3 µM) | MIC (Bacillus subtilis [3]): 5 µg/mL (≈ 12.9 µM) | MIC (Salmonella typhimurium): 5 µg/mL (≈ 12.9 µM)
SMILES: Cc1nc2scc(-c3ccco3)c2c(=O)n1NC(=O)c1ccc(F)cc1F

MIC (Escherichia coli [1]): 12 µg/mL (≈ 31.5 µM) | MIC (Staphylococcus aureus [2]): 11 µg/mL (≈ 28.9 µM) | MIC (Bacillus subtilis [3]): 11 µg/mL (≈ 28.9 µM) | MIC (Salmonella typhimurium): 12 µg/mL (≈ 31.5 µM)
SMILES: Cc1nc2scc(-c3ccco3)c2c(=O)n1/N=C/c1ccc([N+](=O)[O-])cc1

SMILES: Oc1ccccc1/C=N/Nc1nc(SCc2ccccc2)ncc1I
inhibition zone (IZ) (Bacillus subtilis [4]): 13 mm | inhibition zone (IZ) (Staphylococcus aureus [5]): 15 mm | inhibition zone (IZ) (Pseudomonas aeruginosa): 18 mm | inhibition zone (IZ) (Escherichia coli [6]): 7 mm

SMILES: O=C1OC(c2ccc(C(=O)O)cc2)N=C1/C=C/c1ccc(C(=O)c2ccco2)cc1 (stereo not drawn)
zone of inhibition at 50 µg/mL (Bacillus subtilis [7]): 21.2 mm | zone of inhibition at 50 µg/mL (Escherichia coli [8]): 16.7 mm | zone of inhibition at 50 µg/mL (Streptococcus pneumoniae): 19.3 mm

SMILES: COc1ccc(-c2c(C(=O)c3ccc(C(=O)O)cc3)c(N)nc3nc4ccccc4n23)cc1
zone of inhibition at 50 µg/mL (Bacillus subtilis [7]): 24.7 mm | zone of inhibition at 50 µg/mL (Escherichia coli [8]): 17.9 mm | zone of inhibition at 50 µg/mL (Streptococcus pneumoniae): 19.3 mm

MIC (Escherichia coli [1]): 6 µg/mL (≈ 14.3 µM) | MIC (Staphylococcus aureus [2]): 5 µg/mL (≈ 11.9 µM) | MIC (Bacillus subtilis [3]): 4 µg/mL (≈ 9.52 µM) | MIC (Salmonella typhimurium): 6 µg/mL (≈ 14.3 µM)
SMILES: Cc1nc2scc(-c3ccco3)c2c(=O)n1NC(=O)c1ccc(Cl)cc1Cl

SMILES: Cc1ccc(-c2c(C(=O)c3ccc(C(=O)O)cc3)c(N)nc3ncnn23)cc1
zone of inhibition at 50 µg/mL (Bacillus subtilis [7]): 26.8 mm | zone of inhibition at 50 µg/mL (Escherichia coli [8]): 16.6 mm | zone of inhibition at 50 µg/mL (Streptococcus pneumoniae): 20.7 mm

SMILES: O=C1OC(c2ccc(C(=O)O)cc2)N=C1/C=C/c1ccc(C(=O)c2cccs2)cc1 (stereo not drawn)
zone of inhibition at 50 µg/mL (Bacillus subtilis [7]): 22.3 mm | zone of inhibition at 50 µg/mL (Escherichia coli [8]): 17.9 mm | zone of inhibition at 50 µg/mL (Streptococcus pneumoniae): 18.6 mm

SMILES: O=[N+]([O-])c1ccc(Nc2nc(SCc3ccccc3)ncc2I)cc1
inhibition zone (IZ) (Bacillus subtilis [4]): 14 mm | inhibition zone (IZ) (Staphylococcus aureus [5]): 16 mm | inhibition zone (IZ) (Pseudomonas aeruginosa): 10 mm | inhibition zone (IZ) (Escherichia coli [6]): 5 mm

SMILES: O=C(CSc1nnc(-c2cccnc2N2CCOCC2)o1)Nc1nc(-c2ccc(F)cc2)cc(-c2cc(F)c(Cl)cc2Cl)n1
zone of inhibition at 50 µg/mL (Escherichia coli [9]): 11 mm | zone of inhibition at 50 µg/mL (Staphylococcus aureus [10]): 11 mm

SMILES: COc1ccc(/C=N/Nc2nc(SCc3ccccc3)ncc2I)cc1O
inhibition zone (IZ) (Bacillus subtilis [4]): 13 mm | inhibition zone (IZ) (Staphylococcus aureus [5]): 12 mm | inhibition zone (IZ) (Pseudomonas aeruginosa): 19 mm | inhibition zone (IZ) (Escherichia coli [6]): 4 mm

SMILES: O=C1OC(c2ccc(C(=O)O)cc2)N=C1/C=C/c1ccc(C(=O)c2ccccc2)cc1 (stereo not drawn)
zone of inhibition at 50 µg/mL (Bacillus subtilis [7]): 23.7 mm | zone of inhibition at 50 µg/mL (Escherichia coli [8]): 17 mm | zone of inhibition at 50 µg/mL (Streptococcus pneumoniae): 19.3 mm

SMILES: Ic1cnc(SCc2ccccc2)nc1N/N=C/c1c(-c2ccccc2)c(-c2ccccc2)nn1-c1ccccc1
inhibition zone (IZ) (Bacillus subtilis [4]): 20 mm | inhibition zone (IZ) (Staphylococcus aureus [5]): 18 mm | inhibition zone (IZ) (Pseudomonas aeruginosa): 16 mm | inhibition zone (IZ) (Escherichia coli [6]): 10 mm

SMILES: Clc1ccc(/C=N/Nc2nc(SCc3ccccc3)ncc2I)cc1
inhibition zone (IZ) (Bacillus subtilis [4]): 10 mm | inhibition zone (IZ) (Staphylococcus aureus [5]): 10 mm | inhibition zone (IZ) (Pseudomonas aeruginosa): 18 mm | inhibition zone (IZ) (Escherichia coli [6]): 8 mm

SMILES: Nc1ncccc1/C=N/Nc1nc(SCc2ccccc2)ncc1I
inhibition zone (IZ) (Bacillus subtilis [4]): 17 mm | inhibition zone (IZ) (Staphylococcus aureus [5]): 18 mm | inhibition zone (IZ) (Pseudomonas aeruginosa): 18 mm | inhibition zone (IZ) (Escherichia coli [6]): 7 mm

SMILES: Nc1nc2ncnn2c(-c2ccc(Br)cc2)c1C(=O)c1ccc(C(=O)O)cc1
zone of inhibition at 50 µg/mL (Bacillus subtilis [7]): 28.9 mm | zone of inhibition at 50 µg/mL (Escherichia coli [8]): 18.3 mm | zone of inhibition at 50 µg/mL (Streptococcus pneumoniae): 21.3 mm

SMILES: COc1cc(-c2cc(-c3cc(F)c(Cl)cc3Cl)nc(NC(=O)CSc3nnc(-c4cccnc4N4CCOCC4)o3)n2)cc(OC)c1OC
zone of inhibition at 50 µg/mL (Escherichia coli [9]): 14 mm | zone of inhibition at 50 µg/mL (Staphylococcus aureus [10]): 9 mm

MIC (Escherichia coli [1]): 5 µg/mL (≈ 13.5 µM) | MIC (Staphylococcus aureus [2]): 5 µg/mL (≈ 13.5 µM) | MIC (Bacillus subtilis [3]): 4 µg/mL (≈ 10.8 µM) | MIC (Salmonella typhimurium): 6 µg/mL (≈ 16.2 µM)
SMILES: Cc1nc2scc(-c3ccco3)c2c(=O)n1/N=C/c1ccc(F)cc1F

SMILES: O=C1OC(c2ccc(C(=O)O)cc2)N=C1/C=C/c1ccc(C(=O)c2ccc(Cl)cc2)cc1 (stereo not drawn)
zone of inhibition at 50 µg/mL (Bacillus subtilis [7]): 24.3 mm | zone of inhibition at 50 µg/mL (Escherichia coli [8]): 18.2 mm | zone of inhibition at 50 µg/mL (Streptococcus pneumoniae): 21.8 mm
